Laboratory results from patent publication US7432045B2 (priority 2003, dated 2008).
Read-outs that look alike come from different tables or passages of the source. Peptide text beside a SMILES is read from it. * marks the point of attachment. Biotin = O=C1N[C@H]2[C@H](CS[C@H]2CCCCC(=O)*)N1; Ahx = NCCCCCC(=O)O

Assays:
HSV-1 KOS = assay: Plaque reduction assay; format: cell-based; details: presence of serum
Method: Cell culture and virus: The procedures for growing Vero cells and preparing high titer stocks of HSV-1 KOS as described in Grau et al., Invest. Ophthal. and Vis. Sci. 30: 2474 (1989) were utilized. Vero cells were maintained in carbonate-buffered DMEM supplemented with 5% calf serum and 5% fetal bovine serum (regular medium). For some studies, cells were switched to serum-free DMEM buffered with 25 mM HEPES (pH 7.4) and allowed to adapt to that medium for 30 min prior to experimental treatments. Vero cells were seeded into wells (0.28 cm^2) of microtiter plates either at 3.5×10^4 cells/well for use 1 day later (8×10^4 cells/well) or at 1×10^4 cells/well for use 3 days later (2×10^5 cells/well).
Plaque reduction assay: Confluent Vero cell cultures in microtiter plates were infected for 1 hour at 37° C. in 40 μL of medium. Except where indicated, peptide treatments in 40 μL of medium lasted from 1 hour before through 1 hour after infection. At the end of the adsorption period, the cultures were re-fed with 100 μL of regular medium. Plaque formation was scored 2 days later and the number of plaques scored per well was normalized to the number counted in the absence of peptide. Using an ocular micrometer, plaque size (π/2×L×S) was determined by measuring the largest plaque diameter (L) and the diameter at a 90° angle to that (S). The size of each of the first 40 scored plaques was measured except when a plaque included less than 10 rounded cells or touched the side of the well.

HSV-1 KOS mutant hrR3 [1] = details: read-out: inhibition of hrR3 infection IC50; serum-free conditions
HSV-1 KOS mutant hrR3 [2] = assay: LacZ+ virus (hrR3) entry assay with pre-adsorbed virus (entry block); format: cell-based
Method: LacZ^+ virus (hrR3) entry assay: Confluent Vero cell cultures in 96-well microtiter plates were switched to Hepes-buffered serum-free DMEM, cooled on ice to 4° C. for 30 min, and infected with hrR3 for 1 hour at 4° C. in 40 μL of medium. Unattached virus was removed by rinsing with ice-cold medium. Treatments with antiviral peptide SEQ ID NO:1, referred to as EB, or a control peptide which comprised the RRKK tetra-peptide (SEQ ID NO:16) attached to a scrambled version of the membrane transiting peptide RRKKLAALPLVLAAPLAVLA (SEQ ID NO:17) (referred to as EBX), or mock-treatments with peptide-free medium were carried out in serum-free DMEM as indicated. Virus entry was initiated by transferring cultures to 37° C. To inactivate any remaining extracellular virus, cultures were rinsed with PBS and exposed to low pH citrate buffer (40 mM citric acid, 10 mM KCl, 135 mM NaCl, pH 3.0, according to Highlander et al., J. Virol. 61:3356 (1987), for 1 min at 23° C. The citrate was rinsed off with PBS and cultures were maintained in serum-supplemented DMEM until they were fixed with 0.5% gluteraldehyde in 5×PBS for 30 min at 23° C., stained for β-galactosidase activity for 1 hour or overnight at 23° C. with X-gal (Fisher Biotech; BP1615-1) in 1×PBS containing […], 1.3 mM K4Fe(CN)6, and 1.3 mM K3Fe(CN)6, and scored for the presence of blue […] cells.
In these studies, the hrR3 virus was pre-adsorbed to cells for 1 hour at 4° C. before ice cold 25 μM EB or EBX were added in serum-free DMEM. After an additional 1 hour at 4° C., cultures were shifted to 37° C. to initiate virus entry. At 15 min intervals following the temperature shift, any virus remaining outside the cells was inactivated by washing the cultures with low pH citrate buffer. Cultures were then rinsed and returned to peptide-free serum-supplemented DMEM until they were fixed and stained for β-galactosidase 8 hours after the temperature shift.
(§1) Two assays were used to assess the ability of the TAT peptides to inhibit infection of Vero cells with the hrR3 virus. In both assays, the virus was preadsorbed to cells at 4° C. and entry was initiated in the presence of peptide by shifting the cultures to a permissive temperature (30-37° C.). One hour later, the peptide was rinsed off. The entry blocking activity was measured in half of the cultures, in which any extracellular virus remaining after the peptide treatment was inactivated with low pH citrate buffer. The rest of the cultures were exposed to PBS instead of citrate buffer and used to measure virus inactivation. Virus inactivation depended on persistent effects of the peptide lasting for a period of eight hours. At the end of that period, all cultures were fixed and infected cells were detected by staining with X-gal.
(§2) Virus (m.o.i.=0.025) was preadsorbed to Vero cells for 1 h at 4° C. before cultures were exposed to TAT-C (FIG. 15A), bTAT-9X (FIG. 15B), or n50,51TAT-C (FIGS. 15C, 15D) for 1 h at 33 (FIGS. 15A, 15B), 31 (FIG. 15C), or 37° C. (FIG. 15D). […] Inhibition of entry was measured in the citrate-treated cultures, in which any remaining external virus was inactivated immediately following exposure to peptide (●). Persistent virus inactivation lasting, at least in part, for the 8 h period following exposure to peptide, was measured in the PBS-treated cultures (◯). The IC50s measured in these experiments are included in Table 5.

HSV-1 KOS mutant hrR3 [3] = assay: Inactivation of pre-adsorbed virus (virus inactivation); format: cell-based
Method: as §1, §2

HSV-1 KOS mutant hrR3 [4] = details: read-out: post-entry effects IC50; peptide added after citrate treatment, 8 h
in vitro = details: African green monkey
hrR3 = assay: Virucidal assay; format: cell-based, HSV-1
Method: […] The treated virus was diluted 200-fold with serum-supplemented DMEM and assayed for infectivity approximately 1 hour later in microtiter wells seeded with Vero cells (3.5×10^4 cells/well) 1 d earlier. Forty or 100 microliter volumes of diluted virus were adsorbed for 1 or 2 h at 37° C. and lacZ^+ cells were scored 8 hours later. In some experiments, aliquots of diluted virus were first dialyzed (Spectra/Por; MWCO 12-14,000) overnight at 4° C. against a 60-fold excess volume of Hepes-buffered serum-supplemented DMEM or forced by syringe through 0.22 μm membranes (Millex-GV; Millipore) before the remaining infectious virus was assayed.

hrR3 virions = assay: Inactivation of virions in solution; format: cell-based, HSV-1; details: 37° C.; read-out: Inactivation of Virions 37° C. IC50
Method: Inactivation of virions: To assess the ability of peptides to inactivate virions, 3-4×10^6 pfu/mL of virus was mixed on ice with peptide in serum-free DMEM and incubated for 1 h at 4 or 37° C. Aliquots (10 μL) were diluted 1000-fold into peptide-free serum-supplemented DMEM at 23° C. and 50 μL aliquots were assayed in triplicate for infectivity in Vero cell cultures (dilution assay). Alternatively, 10 μL aliquots were diluted into 1 mL of ice-cold peptide-free serum-supplemented DMEM and the virus was pelleted as described above (centrifugation assay). Viral pellets were then resuspended in 250 μL serum-supplemented DMEM and 50 μL aliquots were assayed in triplicate for infectivity in Vero cell cultures.
Some of the virus diluted without the addition of NaCl was pelleted immediately (Control), while the rest of the diluted virus was stored at 4° C. and pelleted 19 h later. The virus was pelleted and assayed for infectivity as described in Example 1.

[5] = 33° C., read-out: Entry Block IC50
[6] = 33° C., read-out: Virus Inactivation IC50 (pre-adsorbed virus)

What does the source list for `N=C(N)NCCC[C@H](NC(=O)[C@@H](N)CCCNC(=N)N)C(=O)N[C@@H](CCCCN)C(=O)N[C@@H](CCCCN)C(=O)O` [R-R-K-K tetramer, R-R-K-K, reference compound] (H-RRKK-OH; N-terminus and C-terminus assumed)?
concentration with no antiviral activity (HSV-1 KOS): > 200 µM; IC50 (HSV-1 KOS mutant hrR3 [1]): 1.3 mM

Which IC50 (HSV-1 KOS mutant hrR3 [2]; [5]) does the source give for `CC(C)C[C@H](NC(=O)[C@H](CC(=O)O)NC(=O)[C@H](CC(N)=O)NC(=O)[C@@H](NC(=O)[C@@H](NC(=O)[C@H](C)NC(=O)CNC(=O)[C@H](C)NC(=O)[C@H](Cc1ccc(O)cc1)NC(=O)CNC(=O)[C@@H]1CCCN1C(=O)[C@H](CCCNC(=N)N)NC(=O)[C@H](CCCNC(=N)N)NC(=O)[C@H](CCCNC(=N)N)NC(=O)[C@H](CCC(N)=O)NC(=O)[C@H](CCCNC(=N)N)NC(=O)[C@H](CCCNC(=N)N)NC(=O)[C@H](CCCCN)NC(=O)[C@H](CCCCN)NC(=O)[C@H](CCCNC(=N)N)NC(=O)CNC(=O)[C@H](Cc1ccc(O)cc1)NC(=O)CCCCCNC(=O)CCCC[C@@H]1SC[C@@H]2NC(=O)N[C@@H]21)C(C)C)C(C)C)C(=O)O` [bTAT-9, b - YGRKKRRQRRR-9] ({Biotin-Ahx}-YGRKKRRQRRRPGYAGAVVNDL-OH) here?
The IC50 was 2100 nM.

And the IC50 (HSV-1 KOS mutant hrR3 [3]; [6])?
Its IC50 is 110 µM.

What about the IC50 (HSV-1 KOS mutant hrR3 [4]) of the same compound?
The IC50 was 210 µM.

And the IC50 (in vitro)?
Its IC50 is about 200 µM.

With `CC(C)C[C@H](NC(=O)CNC(=O)[C@H](CC(N)=O)NC(=O)[C@H](C)NC(=O)[C@H](Cc1ccc(O)cc1)NC(=O)[C@@H](NC(=O)[C@H](CC(=O)O)NC(=O)CNC(=O)[C@@H]1CCCN1C(=O)[C@H](CCCNC(=N)N)NC(=O)[C@H](CCCNC(=N)N)NC(=O)[C@H](CCCNC(=N)N)NC(=O)[C@H](CCC(N)=O)NC(=O)[C@H](CCCNC(=N)N)NC(=O)[C@H](CCCNC(=N)N)NC(=O)[C@H](CCCCN)NC(=O)[C@H](CCCCN)NC(=O)[C@H](CCCNC(=N)N)NC(=O)CNC(=O)[C@H](Cc1ccc(O)cc1)NC(=O)CCCCCNC(=O)CCCC[C@@H]1SC[C@@H]2NC(=O)N[C@@H]21)C(C)C)C(=O)N[C@H](C(=O)N[C@@H](C)C(=O)O)C(C)C` [bTAT-9X, b - YGRKKRRQRRR-9x] ({Biotin-Ahx}-YGRKKRRQRRRPGDVYANGLVA-OH) as the compound, how does the “extent of inhibition of entry” value (HSV-1 KOS mutant hrR3 [2]; 33° C.) read?
Its value is about 90%.

What about the IC50 (HSV-1 KOS mutant hrR3 [2]; 33° C., read-out: Entry Block 33° C. IC50) of the same compound?
Its IC50 is 2000 nM.

What about the IC50 (HSV-1 KOS mutant hrR3 [2]; [5]) of the same compound?
The IC50 was 2000 nM.

And the IC50 (HSV-1 KOS mutant hrR3 [2]; 33° C., read-out: inhibition of entry IC50)?
The IC50 was 2000 nM.

What about the IC50 (HSV-1 KOS mutant hrR3 [2]; 37° C., read-out: Entry Block 37° C. IC50) of the same compound?
Its IC50 is 8700 nM.

What about the IC50 (HSV-1 KOS mutant hrR3 [2]; read-out: Entry Blocking Activity IC50) of the same compound?
Its IC50 is 67000 nM.

What about the “Virucidal Activity 4° C. IC50” value (hrR3; 4° C.) of the same compound?
The value was “None”.

What about the “Virucidal Activity 37° C. IC50” value (hrR3; 37° C.) of the same compound?
The value was “None”.

What about the IC50 (HSV-1 KOS mutant hrR3 [3]; 33° C., read-out: Inactivation of Pre-Adsorbed Virus 33° C. IC50) of the same compound?
The IC50 was 200 µM.

And the IC50 (HSV-1 KOS mutant hrR3 [3]; [6])?
The IC50 was 200 µM.

What about the IC50 (HSV-1 KOS mutant hrR3 [3]; 33° C., read-out: virus inactivation IC50) of the same compound?
The IC50 was 200 µM.

And the IC50 (HSV-1 KOS mutant hrR3 [3]; 37° C., read-out: Inactivation of Pre-Adsorbed Virus 37° C. IC50)?
Its IC50 is 63 µM.

And the IC50 (hrR3 virions)?
Its IC50 is over 1.2 mM.

What does the source list for `CC(C)C[C@H](NC(=O)CCCCCNC(=O)CCCC[C@@H]1SC[C@@H]2NC(=O)N[C@@H]21)C(=O)N[C@H](C(=O)N[C@@H](CC(C)C)C(=O)N[C@@H](C)C(=O)N[C@@H](C)C(=O)N1CCC[C@H]1C(=O)N[C@@H](CC(C)C)C(=O)N[C@@H](C)C(=O)N[C@H](C(=O)N[C@@H](CC(C)C)C(=O)N[C@@H](C)C(=O)N1CCC[C@H]1C(=O)NCC(=O)N[C@@H](CCCNC(=N)N)C(=O)N[C@@H](CCCCN)C(=O)N[C@@H](CCCCN)C(=O)N[C@@H](CCCNC(=N)N)C(=O)N[C@@H](CCCNC(=N)N)C(=O)N[C@@H](CCC(N)=O)C(=O)N[C@@H](CCCNC(=N)N)C(=O)N[C@@H](CCCNC(=N)N)C(=O)N[C@@H](CCCNC(=N)N)C(=O)N[C@@H](CS)C(N)=O)C(C)C)C(C)C` [b12TAT-C] ({Biotin-Ahx}-LVLAAPLAVLAPGRKKRRQRRRC-NH2)?
IC50 (HSV-1 KOS mutant hrR3 [2]; [5]): 3300 nM; IC50 (HSV-1 KOS mutant hrR3 [3]; [6]): 11 µM; IC50 (HSV-1 KOS mutant hrR3 [4]): 100 µM; IC50 (in vitro): ~200 µM
